Drawing on PMC7177946, “Effect of Ferulic Acid, a Phenolic Inducer of Fungal Laccase, on 26S Proteasome Activities In Vitro” (International Journal of Molecular Sciences, 2020), this text covers inhibition for one compound.

Assay [1] addresses T1, human 26S proteasome, trypsin-like (TL) site, β2 subunit (Homo sapiens, UniProt Q99436).
T1 construct: gene PSMB7; commercial purified 26S complex (BostonBiochem); beta subunits mature with N-terminal Thr; with Proteasome subunit beta type-5; Proteasome subunit beta type-6
T1 sequence (Q99436 44-277): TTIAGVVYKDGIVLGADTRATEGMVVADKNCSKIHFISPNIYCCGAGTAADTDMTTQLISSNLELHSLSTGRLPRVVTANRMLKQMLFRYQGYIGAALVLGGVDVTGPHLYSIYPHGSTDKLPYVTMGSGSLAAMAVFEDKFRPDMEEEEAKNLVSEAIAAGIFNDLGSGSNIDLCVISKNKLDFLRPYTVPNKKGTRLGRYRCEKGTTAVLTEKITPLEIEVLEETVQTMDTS
The experiment in a line: fluorogenic peptidase assay, Z-GGR-AMC. It counts as biochemical. The settings on record: read-out: % inhibition at 1 mM.

The target of assay [2] is T2, human 26S proteasome, chymotrypsin-like (CHTL) site, β5 subunit (Homo sapiens, UniProt P28074).
T2 construct: gene PSMB5; commercial purified 26S complex (BostonBiochem); beta subunits mature with N-terminal Thr; with Proteasome subunit beta type-7; Proteasome subunit beta type-6
T2 sequence (P28074 60-263): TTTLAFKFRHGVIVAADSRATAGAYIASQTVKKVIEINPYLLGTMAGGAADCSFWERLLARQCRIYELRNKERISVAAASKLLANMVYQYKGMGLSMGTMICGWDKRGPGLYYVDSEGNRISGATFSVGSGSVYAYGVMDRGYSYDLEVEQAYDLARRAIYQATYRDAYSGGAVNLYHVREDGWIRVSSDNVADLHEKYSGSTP
Nature of the assay: fluorogenic peptidase assay, Suc-LLVY-AMC. The class given is biochemical. As to conditions: read-out: % inhibition at 1 mM.

The term inhibition denotes the share of the control response that was lost under treatment. Take `COc1cc(/C=C/C(=O)O)ccc1O` [ferulic acid, 4-hydroxy-3-methoxycinnamic acid]: the inhibition at 1000 µM in assay [1] amounted to 30%; in assay [2], 31%.
